Species: Rattus norvegicus
Assay: DrugMatrix - Regimen: Daily Repeat
Format: toxicity, organism-based, Sprague-Dawley
Parameters: regimen Daily Repeat, gender Male, age 6-8 weeks
Conditions: in vivo, po, route oral GAVAGE, vehicle .5 % CMC; for ABSOLUTE BASOPHIL / ABSOLUTE EOSINOPHIL / ABSOLUTE LYMPHOCYTE / ABSOLUTE MONOCYTE / ABSOLUTE SEGMENTED NEUTROPHIL / BASOPHIL / EOSINOPHIL / ERYTHROCYTE COUNT / HEMATOCRIT / HEMOGLOBIN / LEUKOCYTE COUNT / LYMPHOCYTE / MEAN CORPUSCULAR HEMOGLOBIN / MEAN CORPUSCULAR HEMOGLOBIN CONCENTRATION / MEAN CORPUSCULAR VOLUME / MONOCYTE / NEUTROPHIL / NUCLEATED RED BLOOD CELLS / PLATELET COUNT: tissue Blood; for ALANINE AMINOTRANSFERASE / ALBUMIN / ALKALINE PHOSPHATASE / ASPARTATE AMINOTRANSFERASE / BLOOD UREA NITROGEN / CARBON DIOXIDE / CHLORIDE / CHOLESTEROL / CREATINE PHOSPHOKINASE / CREATININE / GLUCOSE / LACTATE DEHYDROGENASE / LIPASE / PHOSPHORUS / POTASSIUM / SODIUM / TOTAL BILIRUBIN / TOTAL PROTEIN / URIC ACID: tissue Plasma
[1] = 50 mg/kg, 120 h, dose level Low, time 5 day
[2] = 1500 mg/kg, 72 h, dose level High, time 3 day
[3] = 1500 mg/kg, 120 h, dose level High, time 5 day

CNC(=C[N+](=O)[O-])NCCSCc1ccc(CN(C)C)o1 [RANITIDINE]
ABSOLUTE BASOPHIL [1]: 0 CELLS/uL
ABSOLUTE EOSINOPHIL [1]: 64.67 CELLS/uL
ABSOLUTE LYMPHOCYTE [1]: 14230.33 CELLS/uL
ABSOLUTE MONOCYTE [1]: 0 CELLS/uL
ABSOLUTE SEGMENTED NEUTROPHIL [1]: 1138.33 CELLS/uL
BASOPHIL [1]: 0%
EOSINOPHIL [1]: 0.33%
ERYTHROCYTE COUNT [1]: 5.36 x10E6/uL
HEMATOCRIT [1]: 34.53%
HEMOGLOBIN [1]: 13.67 G/DL
LEUKOCYTE COUNT [1]: 15.43 x10E3/uL
LYMPHOCYTE [1]: 92.67%
MEAN CORPUSCULAR HEMOGLOBIN [1]: 25.53 pg
MEAN CORPUSCULAR HEMOGLOBIN CONCENTRATION [1]: 39.6 G/DL
MEAN CORPUSCULAR VOLUME [1]: 64.47 fL
MONOCYTE [1]: 0%
NEUTROPHIL [1]: 7%
NUCLEATED RED BLOOD CELLS [1]: 0 /100WBC
PLATELET COUNT [1]: 1360.67 x10E3/uL
ALANINE AMINOTRANSFERASE [1]: 42 u/L
ALBUMIN [1]: 4.17 G/DL
ALKALINE PHOSPHATASE [1]: 395 u/L
ASPARTATE AMINOTRANSFERASE [1]: 70.33 u/L
BLOOD UREA NITROGEN [1]: 17 mg/dL
CARBON DIOXIDE [1]: 28 mmol/L
CHLORIDE [1]: 102 MEQ/L
CHOLESTEROL [1]: 50.33 mg/dL
CREATINE PHOSPHOKINASE [1]: 245.67 u/L
CREATININE [1]: 0.19 mg/dL
GLUCOSE [1]: 148 mg/dL
LACTATE DEHYDROGENASE [1]: 98 u/L
LIPASE [1]: 8.67 u/L
PHOSPHORUS [1]: 12.1 mg/dL
POTASSIUM [1]: 6.46 MEQ/L
SODIUM [1]: 145.6 MEQ/L
TOTAL BILIRUBIN [1]: 0.2 mg/dL
TOTAL PROTEIN [1]: 6 G/DL
URIC ACID [1]: 1.33 mg/dL
ABSOLUTE BASOPHIL [2]: 0 CELLS/uL
ABSOLUTE EOSINOPHIL [2]: 49.67 CELLS/uL
ABSOLUTE LYMPHOCYTE [2]: 15225.67 CELLS/uL
ABSOLUTE MONOCYTE [2]: 162.67 CELLS/uL
ABSOLUTE SEGMENTED NEUTROPHIL [2]: 1162 CELLS/uL
BASOPHIL [2]: 0%
EOSINOPHIL [2]: 0.33%
ERYTHROCYTE COUNT [2]: 5.61 x10E6/uL
HEMATOCRIT [2]: 35.4%
HEMOGLOBIN [2]: 14 G/DL
LEUKOCYTE COUNT [2]: 16.6 x10E3/uL
LYMPHOCYTE [2]: 91.67%
MEAN CORPUSCULAR HEMOGLOBIN [2]: 24.97 pg
MEAN CORPUSCULAR HEMOGLOBIN CONCENTRATION [2]: 39.57 G/DL
MEAN CORPUSCULAR VOLUME [2]: 63.03 fL
MONOCYTE [2]: 1%
NEUTROPHIL [2]: 7%
NUCLEATED RED BLOOD CELLS [2]: 0.33 /100WBC
PLATELET COUNT [2]: 1234.33 x10E3/uL
ALANINE AMINOTRANSFERASE [2]: 53 u/L
ALBUMIN [2]: 4.17 G/DL
ALKALINE PHOSPHATASE [2]: 349.67 u/L
ASPARTATE AMINOTRANSFERASE [2]: 86.67 u/L
BLOOD UREA NITROGEN [2]: 14.67 mg/dL
CARBON DIOXIDE [2]: 31 mmol/L
CHLORIDE [2]: 101.33 MEQ/L
CHOLESTEROL [2]: 68 mg/dL
CREATINE PHOSPHOKINASE [2]: 268.67 u/L
CREATININE [2]: 0.18 mg/dL
GLUCOSE [2]: 146 mg/dL
LACTATE DEHYDROGENASE [2]: 319.67 u/L
LIPASE [2]: 9.33 u/L
PHOSPHORUS [2]: 12.6 mg/dL
POTASSIUM [2]: 7.13 MEQ/L
SODIUM [2]: 145.5 MEQ/L
TOTAL BILIRUBIN [2]: 0.17 mg/dL
TOTAL PROTEIN [2]: 5.6 G/DL
URIC ACID [2]: 1.37 mg/dL
ABSOLUTE BASOPHIL [3]: 0 CELLS/uL
ABSOLUTE EOSINOPHIL [3]: 61.33 CELLS/uL
ABSOLUTE LYMPHOCYTE [3]: 16689.33 CELLS/uL
ABSOLUTE MONOCYTE [3]: 42 CELLS/uL
ABSOLUTE SEGMENTED NEUTROPHIL [3]: 1274 CELLS/uL
BASOPHIL [3]: 0%
EOSINOPHIL [3]: 0.33%
ERYTHROCYTE COUNT [3]: 6.18 x10E6/uL
HEMATOCRIT [3]: 38.9%
HEMOGLOBIN [3]: 15.3 G/DL
LEUKOCYTE COUNT [3]: 18.07 x10E3/uL
LYMPHOCYTE [3]: 92.67%
MEAN CORPUSCULAR HEMOGLOBIN [3]: 24.8 pg
MEAN CORPUSCULAR HEMOGLOBIN CONCENTRATION [3]: 39.33 G/DL
MEAN CORPUSCULAR VOLUME [3]: 63.03 fL
MONOCYTE [3]: 0.33%
NEUTROPHIL [3]: 6.67%
NUCLEATED RED BLOOD CELLS [3]: 0 /100WBC
PLATELET COUNT [3]: 1282 x10E3/uL
ALANINE AMINOTRANSFERASE [3]: 57.33 u/L
ALBUMIN [3]: 4.27 G/DL
ALKALINE PHOSPHATASE [3]: 392.67 u/L
ASPARTATE AMINOTRANSFERASE [3]: 93.67 u/L
BLOOD UREA NITROGEN [3]: 15.67 mg/dL
CARBON DIOXIDE [3]: 21.33 mmol/L
CHLORIDE [3]: 100.33 MEQ/L
CHOLESTEROL [3]: 69.67 mg/dL
CREATINE PHOSPHOKINASE [3]: 330.33 u/L
CREATININE [3]: 0.23 mg/dL
GLUCOSE [3]: 154 mg/dL
LACTATE DEHYDROGENASE [3]: 426.67 u/L
LIPASE [3]: 10 u/L
PHOSPHORUS [3]: 12.5 mg/dL
POTASSIUM [3]: 6.43 MEQ/L
SODIUM [3]: 144.53 MEQ/L
TOTAL BILIRUBIN [3]: 0.23 mg/dL
TOTAL PROTEIN [3]: 6.27 G/DL
URIC ACID [3]: 2.73 mg/dL

Source: ChEMBL document CHEMBL3885881, “DrugMatrix”
